These results are taken from patent US9884843B2 (Peloton Therapeutics, Inc., priority 2013, dated 2018).

The subject of experiment [1] is 786-O-Hif-Luc cells. As to the kind of experiment: Luciferase Assay (HIF responsive element reporter). It counts as cell-based. Particulars: read-out: Mean Luciferease EC50. On the procedure:
A pool of infected cells were then selected against 2 μg/mL of puromycin (P8833, Sigma) for 10 days followed by limited dilution to select single clones.
Each concentration was tested in triplicate. After about 24 hours, luciferase activity was determined using ONE-Glo Luciferase Assay Reagent (E6110, Promega) following the manufacturer's recommended procedure. EC50 were calculated by using Dotmatics software.

Experiment [2] concerns HIF-2α HIS TAG-PASB Domain. As to the kind of experiment: biochemical. The class given is binding. Put shortly: (§1)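 Scintillation proximity assay with His-tagged protein bound to SPA beads; test compounds in DMSO displace a tritium-labelled probe ligand, lowering bead light emission. Percent inhibition calculated against high and low controls, with IC50 fitted from it.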
Experiment [3] concerns VEGF in culture medium of 786-O cells. Briefly: VEGF ELISA Assay. It counts as cell-based. The method, then:
Four hours later, serial dilutions of 10× compound stocks were made in growth medium from 500×DMSO stocks, and 20 μL of those 10× stocks were added to each well to make final concentrations as follows (μM): 20, 6.7, 2.2, 0.74, 0.25, 0.082, 0.027, 0.009, 0.003, 0.001, 0. Each concentration had duplicated wells. About twenty hours later, the growth medium was removed by suction and each well was supplied with 180 μL of growth medium. About 20 μl freshly-made 10× compound stocks were added to each well. […] The EC50 was calculated by GraphPad Prism using the dose-response-inhibition (four parameter) equation. The cell seeded plate was then subjected to CellTiter-Glo luminescence cell viability assay (Promega) by adding about 50 μL of Celltiter Glo reagent into each well and shaking the plate for 8 minutes at 550 rpm (Thermomixer R, Eppendorf). The luminescence signals were read in a plate reader (3 second delay, 0.5 second/well integration time, Synergy 2 multi Detection Microplate reader) immediately.
In general terms: ELISA stands for enzyme-linked immunosorbent assay.

The subject of experiment [4] is HIF-2α and HIF-2α-regulated genes in 786-O xenograft. As to the kind of experiment: In vivo PK/PD study: tumor mRNA levels by qRT-PCR. Also noted: species or system SCID/Biege mice. Particulars: 786-O xenograft mice, 10 mg/kg oral gavage three times at 12 hour intervals, 12 hours post last dose. On the procedure:
(§2) About 5×10^6 renal cell carcinoma 786-O tumor cells (ATCC® CRL-1932™, VHL and HIF-1α null cell line) in PBS and Matrigel (1:1 in volume) were injected subcutaneously in the right flanks of SCID/Biege mice at 6-7 weeks of age for xenograft development. When the xenografts reached about 450 mm^3 in size, the tumor-bearing mice were randomly divided into two groups (4 mice in each group). […] Animals were sacrificed at 12 hours post last dose. Tumors and plasma were collected from each animal. Total RNA was extracted from the tumors. The mRNA levels of HIF-2α and its respective target genes were determined by qRT-PCR.

Experiment [5] relates to human VEGFA. As to the kind of experiment: In vivo PK/PD study: plasma human VEGFA by ELISA. Further details: species or system SCID/Biege mice. Particulars: 786-O tumor-bearing mice, 10 mg/kg oral gavage three times at 12 hour intervals. On the procedure: as §2
The plasma level of human VEGFA was determined by ELISA assay.

Experiment [6] relates to renal cell carcinoma 786-O xenograft. As to the kind of experiment: In vivo efficacy study, 786-O xenograft. Further details: species or system SCID/Biege mice.
Experiment [7] addresses HIF-2α HIS TAG-PASB Domain (Homo sapiens, UniProt Q99814). As to the kind of experiment: biochemical. The class given is binding. Particulars: displacement of Compound 120 probe; mean; read-out: Mean SPA IC50. Put shortly:
as §1

The mark [8] stands for this setting: displacement of Compound 120 probe, mean, read-out: Mean SPA IC50.
Where [9] appears, read: 786-O-Hif-Luc cells, about 24 hours.
The mark [10] stands for this setting: 24 h, 786-O-Hif-Luc cells, about 24 hours.

Molecules are shown by their SMILES. “Also recorded” adds a separate entry of the source. Read-outs that look alike come from different tables or passages of the source.

HIF-2α HIS TAG-PASB Domain (Homo sapiens, UniProt Q99814), sequence (Q99814 whole entry, looked up, the tested form may be a part): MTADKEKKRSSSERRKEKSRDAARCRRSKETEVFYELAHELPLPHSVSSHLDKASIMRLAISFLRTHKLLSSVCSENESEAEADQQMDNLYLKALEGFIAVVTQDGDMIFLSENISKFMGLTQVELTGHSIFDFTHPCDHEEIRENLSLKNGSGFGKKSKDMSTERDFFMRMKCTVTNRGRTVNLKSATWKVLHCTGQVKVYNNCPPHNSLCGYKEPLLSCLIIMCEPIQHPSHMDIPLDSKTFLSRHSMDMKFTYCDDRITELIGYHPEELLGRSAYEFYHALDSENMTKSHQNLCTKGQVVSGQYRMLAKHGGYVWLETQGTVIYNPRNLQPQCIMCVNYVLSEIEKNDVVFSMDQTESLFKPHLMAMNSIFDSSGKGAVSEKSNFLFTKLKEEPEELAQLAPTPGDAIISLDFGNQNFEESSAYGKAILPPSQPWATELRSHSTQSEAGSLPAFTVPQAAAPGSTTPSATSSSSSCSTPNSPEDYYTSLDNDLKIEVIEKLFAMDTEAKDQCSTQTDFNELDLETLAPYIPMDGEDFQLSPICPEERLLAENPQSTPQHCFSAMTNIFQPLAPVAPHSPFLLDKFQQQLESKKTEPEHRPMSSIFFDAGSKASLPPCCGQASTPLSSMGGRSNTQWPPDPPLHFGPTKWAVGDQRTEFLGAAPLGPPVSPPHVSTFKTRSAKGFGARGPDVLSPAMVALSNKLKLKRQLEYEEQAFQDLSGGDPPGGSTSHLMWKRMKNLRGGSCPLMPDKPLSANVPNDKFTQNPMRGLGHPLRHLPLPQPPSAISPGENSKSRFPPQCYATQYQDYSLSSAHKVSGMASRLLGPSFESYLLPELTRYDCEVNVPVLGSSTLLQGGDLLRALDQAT

Take `Cc1c(Oc2cc(F)cc(Cl)c2)ccc2c1C(O)C(F)(F)S2(=O)=O` (centres unmarked) [Compound 13, 5-(3-Chloro-5-fluorophenoxy)-2,2-difluoro-3-hydroxy-4-methyl-2,3-dihydrobenzo[b]thiophene 1,1-dioxide]: the EC50 (usually the concentration at which the effect is half-maximal) in experiment [1] (24 h) came to 0.45 µM. In addition, the IC50 (in general, the concentration needed to halve the response being measured) in experiment [2] (setting [8]) came to 0.015 µM.

As for `N=S1(=O)c2ccc(Oc3cc(F)cc(F)c3)c(C(F)F)c2C(O)C1(F)F` (centres unmarked) [Compound 53, 4-(difluoromethyl)-5-(3,5-difluorophenoxy)-2,2-difluoro-3-hydroxy-1-imino-2,3-dihydro-1H-1λ^4-benzo[b]thiophene 1-oxide], the figures for the 50% effective concentration (EC50) in experiment [3] and in experiment [1] (setting [9]) were 0.067 µM and 0.039 µM, respectively.

For the compound `[2H][C@@]1(O)c2c(ccc(Oc3cc(F)cc(C#N)c3)c2C(F)F)S(=O)(=O)C1(F)F` [Compound 43, (R)-3-((4-(Difluoromethyl)-2,2-difluoro-3-hydroxy-1,1-dioxido-2,3-dihydrobenzo[b]thiophen-5-yl-3-d)oxy)-5-fluorobenzonitrile], the EC50 in experiment [1] (setting [9]) worked out at 0.006 µM. Besides, the IC50 in experiment [2] (setting [8]) is […].

With `O=S1(=O)c2ccc(Oc3cncc(Cl)c3)c(C(F)F)c2C(O)C1(F)F` (centres unmarked) [Compound 35, 5-((5-Chloropyridin-3-yl)oxy)-4-(difluoromethyl)-2,2-difluoro-3-hydroxy-2,3-dihydrobenzo[b]thiophene 1,1-dioxide], the half-maximal effective concentration (EC50) in experiment [1] (24 h) was 0.15 µM. Further, in experiment [2] (setting [8]), the IC50 is 0.23 µM.

As to `N#Cc1cc(F)cc(Oc2ccc3c(c2C(F)F)[C@@H](O)C(F)(F)S3(=O)=O)c1` [Compound 3, (R)-3-((4-(Difluoromethyl)-2,2-difluoro-3-hydroxy-1,1-dioxido-2,3-dihydrobenzo[b]thiophen-5-yl)oxy)-5-fluorobenzonitrile], in experiment [4], the “Tumor mRNA for HIF-1α and HIF-1α specific target genes (PGK1 and PDK1)” value is “no significant effect; also recorded: no significant changes”; the “Tumor mRNA for HIF-2α and HIF-2α specific target genes (PAI-1 and CCND1)” value is “reduced; also recorded: significant reduction”. The “Plasma level of human VEGFA” value in experiment [5] is given as “reduced; also recorded: undetectable level”. In experiment [6] (10 mg/kg b.i.d. oral gavage for 21 days, versus vehicle), the “Effect on tumor size” value is “tumor size reduction and regression; also recorded: statistically significant reduction of tumor size”. In experiment [6] (10 mg/kg b.i.d. oral gavage, after 21 days of dosing), the “Tumor size Mean ± SEM” value was found to be 57 ± 5.6 mm^3. The EC50 in experiment [1] (setting [9]) stood at 0.007 µM. The IC50 in experiment [2] (setting [8]) was […].

`N#Cc1c(Oc2cc(F)cc(Cl)c2)ccc2c1C(O)C(F)(F)S2(=O)=O` (centres unmarked) [Compound 10, 5-(3-chloro-5-fluorophenoxy)-2,2-difluoro-3-hydroxy-2,3-dihydrobenzo[b]thiophene-4-carbonitrile 1,1-dioxide]: the EC50 in experiment [1] (setting [9]) came out at 4.17 µM. Besides, the 50% inhibitory concentration (IC50) in experiment [2] (setting [8]) came to 0.045 µM.

In the case of `C[C@@]1(O)c2c(ccc(Oc3cc(F)cc(C#N)c3)c2C#N)S(=O)(=O)C1(F)F` [Compound 112, (R)-5-(3-cyano-5-fluorophenoxy)-2,2-difluoro-3-hydroxy-3-methyl-2,3-dihydrobenzo[b]thiophene-4-carbonitrile 1,1-dioxide], the EC50 in experiment [3] (Homo sapiens, 786-0) stood at 0.031 µM; in experiment [1] (setting [10]), 0.018 µM.

Turning to `O=S1(=O)c2ccc(Oc3cc(F)cc(Cl)c3)c(Br)c2C(O)C1(F)F` (centres unmarked) [Compound 9, 4-Bromo-5-(3-chloro-5-fluorophenoxy)-2,2-difluoro-3-hydroxy-2,3-dihydrobenzo[b]thiophene 1,1-dioxide], the EC50 came out at 0.065 µM in experiment [3] (Homo sapiens, 786-0) and 0.05 µM in experiment [1] (setting [9]). Also, the IC50 in experiment [7] was determined as 0.002 µM.

`N#Cc1cc(F)cc(Oc2ccc3c(c2C(F)F)C(=O)C(F)(F)S3(=O)=O)c1` [Compound 39, 3-((4-(Difluoromethyl)-2,2-difluoro-1,1-dioxido-3-oxo-2,3-dihydrobenzo[b]thiophen-5-yl)oxy)-5-fluorobenzonitrile]: in experiment [1] (setting [9]), the concentration giving a half-maximal response (EC50) came to 2.79 µM. Moreover, in experiment [2] (setting [8]), the 50% inhibitory concentration (IC50) turned out to be 2.42 µM.

With `N#Cc1cncc(Oc2ccc3c(c2C(F)F)C(O)C(F)(F)S3(=O)=O)c1` (centres unmarked) [Compound 37, 5-((4-(Difluoromethyl)-2,2-difluoro-3-hydroxy-1,1-dioxido-2,3-dihydrobenzo[b]thiophen-5-yl)oxy)nicotinonitrile], the EC50 in experiment [1] (setting [9]) was determined as 0.17 µM. For the same compound, the IC50 in experiment [2] (setting [8]) is 0.12 µM.

On to `N#Cc1c(Oc2cc(F)cc(Cl)c2)ccc2c1C(O)CS2(=O)=O` (centres unmarked) [Compound 7, 5-(3-chloro-5-fluorophenoxy)-3-hydroxy-2,3-dihydrobenzo[b]thiophene-4-carbonitrile 1,1-dioxide], for which the EC50 in experiment [3] (Homo sapiens, 786-0) is 0.33 µM; in experiment [1] (setting [9]), 0.45 µM.

As to `N#Cc1cncc(Oc2ccc3c(c2Br)[C@@H](O)C(F)(F)S3(=O)=O)c1` [Compound 78, (R)-5-((4-Bromo-2,2-difluoro-3-hydroxy-1,1-dioxido-2,3-dihydrobenzo[b]thiophen-5-yl)oxy)nicotinonitrile], the concentration for a half-maximal effect (EC50) is 0.33 µM in experiment [3] (Homo sapiens, 786-0) and 0.095 µM in experiment [1] (setting [10]). Besides, in experiment [7], the 50% inhibitory concentration (IC50) stood at 0.12 µM.

On to `O=S1(=O)C[C@@H](O)c2c1ccc(Oc1cc(F)cc(Cl)c1)c2Br` [(3S)-4-bromo-5-(3-chloro-5-fluoro-phenoxy)-1,1-dioxo-2,3-dihydrobenzothiophen-3-ol], for which the IC50 in experiment [2] (unnumbered compounds listed by structure and name, read-out: IC50 value in SPA) was more than 100 µM.
